Reference: PubChem BioAssay AID330 (DTP/NCI, 2004)
Where “and” joins values, the source holds several entries; their conditions need not be identical. Identical values can stand only once. Toxic doses and inconclusive results are not listed. Rule for the calls: active = survival T/C of 150% or more; inactive = T/C below 125% in these data.

Test system: P388 leukemia ip, CD2F1 mice, survival T/C
Experiment: NCI In Vivo Anticancer Drug Screen. Data for tumor model P388 Leukemia (intraperitoneal) in CD2F1 (CDF1) mice
Conditions: endpoint: median survival time, higher = longer survival
In short: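 Mice carrying the transplanted tumor received test compound or vehicle. Survival was recorded in each group, and the value is the treated-group measurement divided by that of the vehicle-treated control group.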

[1] = dose: 25.0 mg/kg/injection, schedule: Q01DX009 (ip), vehicle: saline
[2] = dose: 50.0 mg/kg/injection, schedule: Q01DX009 (ip), vehicle: saline with Tween-80
[3] = dose: 100.0 mg/kg/injection, schedule: Q01DX009 (ip), vehicle: saline with Tween-80
[4] = dose: 200.0 mg/kg/injection, schedule: Q01DX009 (ip), vehicle: saline with Tween-80
[5] = dose: 60.0 mg/kg/injection, schedule: Q01DX005 (ip), vehicle: Klucel (hydroxypropylcellulose) (HPC)
[6] = dose: 120.0 mg/kg/injection, schedule: Q01DX005 (ip), vehicle: Klucel (hydroxypropylcellulose) (HPC)
[7] = dose: 50.0 mg/kg/injection, schedule: Q01DX005 (ip), vehicle: Klucel (hydroxypropylcellulose) (HPC)
[8] = dose: 100.0 mg/kg/injection, schedule: Q01DX005 (ip), vehicle: Klucel (hydroxypropylcellulose) (HPC)
[9] = dose: 50.0 mg/kg/injection, schedule: Q01DX009 (ip), vehicle: Klucel (hydroxypropylcellulose) (HPC)
[10] = dose: 100.0 mg/kg/injection, schedule: Q01DX009 (ip), vehicle: Klucel (hydroxypropylcellulose) (HPC)
[11] = dose: 100.0 mg/kg/injection, schedule: Q01DX001 (ip), vehicle: saline with Tween-80
[12] = dose: 200.0 mg/kg/injection, schedule: Q01DX001 (ip), vehicle: saline with Tween-80
[13] = dose: 400.0 mg/kg/injection, schedule: Q01DX001 (ip), vehicle: saline with Tween-80

Measured: T/C

O=C1CS/C(=N\C(=O)Nc2ccc(Cl)c(Cl)c2)N1
inactive: dose: 6.25 mg/kg/injection, schedule: Q01DX009 (ip), vehicle: saline 91 % of control | dose: 12.5 mg/kg/injection, schedule: Q01DX009 (ip), vehicle: saline 100 % of control | [1] 94 % of control | dose: 50.0 mg/kg/injection, schedule: Q01DX009 (ip), vehicle: saline + alcohol 88 % of control | dose: 100.0 mg/kg/injection, schedule: Q01DX009 (ip), vehicle: saline + alcohol 91 % of control | dose: 200.0 mg/kg/injection, schedule: Q01DX009 (ip), vehicle: saline + alcohol 88 % of control

COC(=O)CCCC(NC(=O)c1ccc([N+](=O)[O-])cc1)C(=O)OC (stereo unspecified)
inactive: [2] 98 % of control | [3] 96 % of control | [4] 96 % of control

O=S(=O)(c1cc(Cl)c(Cl)cc1Cl)N(CCCCCN(S(=O)(=O)c1cc(Cl)c(Cl)cc1Cl)S(=O)(=O)c1cc(Cl)c(Cl)cc1Cl)S(=O)(=O)c1cc(Cl)c(Cl)cc1Cl
inactive: [5] 91 % of control | [6] 91 % of control

CCOC(=O)Nc1nc2ccccc2n1CN1CCN(C)CC1
inactive: dose: 25.0 mg/kg/injection, schedule: Q01DX005 (ip), vehicle: Klucel (hydroxypropylcellulose) (HPC) 99 % of control | [7] 102 % of control and 97 % of control | [8] 100 % of control and 107 % of control | dose: 200.0 mg/kg/injection, schedule: Q01DX005 (ip), vehicle: Klucel (hydroxypropylcellulose) (HPC) 113 % of control and 120 % of control

O=C(NNc1ccccc1)c1ccccc1Cl
inactive: [1] 101 % of control | dose: 50.0 mg/kg/injection, schedule: Q01DX009 (ip), vehicle: saline 105 % of control | dose: 100.0 mg/kg/injection, schedule: Q01DX009 (ip), vehicle: saline 97 % of control | dose: 200.0 mg/kg/injection, schedule: Q01DX009 (ip), vehicle: saline 98 % of control

CNc1nc(-c2ccc(C(C)(C)C)cc2)c(-c2ccc(C(C)(C)C)cc2)[nH]1
inactive: dose: 25.0 mg/kg/injection, schedule: Q04DX002 (ip), vehicle: saline with Tween-80 117 % of control and 96 % of control | dose: 50.0 mg/kg/injection, schedule: Q04DX002 (ip), vehicle: saline with Tween-80 107 % of control and 121 % of control

Cc1cc(C)c2c(n1)sc1c(=O)n(N)c(C)nc12
inactive: dose: 60.0 mg/kg/injection, schedule: Q01DX005 (ip), vehicle: saline with Tween-80 87 % of control | dose: 240.0 mg/kg/injection, schedule: Q01DX005 (ip), vehicle: saline with Tween-80 94 % of control and 95 % of control

N#C/C(=C/N)C(N)=O
inactive: [2] 104 % of control | [3] 103 % of control | [4] 103 % of control

CC1(C)CCCC2(C)C1CCC1(C)OC(/C(=C\CO)CO)CC12 (stereo unspecified)
inactive: [9] 96 % of control | [10] 86 % of control

C=CC(C)C(O)C(=O)OC (stereo unspecified)
inactive: [11] 98 % of control | [12] 110 % of control | [13] 103 % of control

O=C1CC(c2ccccc2)Oc2cc(O)cc(O)c21 (stereo unspecified)
inactive: dose: 12.5 mg/kg/injection, schedule: Q01DX009 (ip), vehicle: Klucel (hydroxypropylcellulose) (HPC) 98 % of control | dose: 25.0 mg/kg/injection, schedule: Q01DX009 (ip), vehicle: Klucel (hydroxypropylcellulose) (HPC) 98 % of control | dose: 50.0 mg/kg/injection, schedule: Q01DX009 (ip), vehicle: other 110 % of control | [10] 98 % of control | dose: 200.0 mg/kg/injection, schedule: Q01DX009 (ip), vehicle: other 102 % of control | dose: 400.0 mg/kg/injection, schedule: Q01DX009 (ip), vehicle: other 102 % of control

CC(C)CC(NC(=O)OCC1c2ccccc2-c2ccccc21)C(=O)O (stereo unspecified)
inactive: [7] 101 % of control | [8] 100 % of control

CN(C)CCNC(=O)c1nn(-c2ccccc2)c2c1CSc1ccccc1-2
inactive: dose: 100.0 mg/kg/injection, schedule: Q04DX002 (ip), vehicle: saline with Tween-80 100 % of control | dose: 200.0 mg/kg/injection, schedule: Q04DX002 (ip), vehicle: saline with Tween-80 105 % of control | dose: 400.0 mg/kg/injection, schedule: Q04DX002 (ip), vehicle: saline with Tween-80 103 % of control

CCOC(=O)[C]1([Sb]([CH3])[CH3])N=NC(C(=O)OC)=C1C(=O)OC (stereo unspecified)
inactive: dose: 25.0 mg/kg/injection, schedule: Q04DX003 (ip), vehicle: saline 101 % of control and 98 % of control | dose: 50.0 mg/kg/injection, schedule: Q04DX003 (ip), vehicle: saline 100 % of control and 102 % of control | dose: 100.0 mg/kg/injection, schedule: Q04DX003 (ip), vehicle: saline with Tween-80 108 % of control | dose: 100.0 mg/kg/injection, schedule: Q04DX003 (ip), vehicle: saline 102 % of control and 104 % of control | dose: 200.0 mg/kg/injection, schedule: Q04DX003 (ip), vehicle: saline 107 % of control and 98 % of control | dose: 400.0 mg/kg/injection, schedule: Q04DX003 (ip), vehicle: saline with Tween-80 105 % of control

Cc1c(Cl)cccc1Nc1ncccc1C(=O)O
inactive: dose: 50.0 mg/kg/injection, schedule: Q01DX005 (ip), vehicle: saline with Tween-80 95 % of control | dose: 100.0 mg/kg/injection, schedule: Q01DX005 (ip), vehicle: saline with Tween-80 105 % of control

Cc1cc(OC(=O)c2c(C)cc(O)cc2O)cc(O)c1C(=O)O
inactive: dose: 0.25 mg/kg/injection, schedule: Q01DX009 (ip), vehicle: saline with Tween-80 101 % of control | dose: 0.5 mg/kg/injection, schedule: Q01DX009 (ip), vehicle: saline with Tween-80 102 % of control | dose: 1.0 mg/kg/injection, schedule: Q01DX009 (ip), vehicle: saline with Tween-80 101 % of control

CC(C)NC(=O)OCc1c(COC(=O)NC(C)C)c(-c2ccc(Cl)c(Cl)c2)n2c1CSC2
inactive: dose: 25.0 mg/kg/injection, schedule: Q01DX005 (ip), vehicle: Klucel + Tween-80 91 % of control | dose: 50.0 mg/kg/injection, schedule: Q01DX005 (ip), vehicle: Klucel + Tween-80 88 % of control | dose: 100.0 mg/kg/injection, schedule: Q01DX005 (ip), vehicle: Klucel + Tween-80 87 % of control and 92 % of control | dose: 200.0 mg/kg/injection, schedule: Q01DX005 (ip), vehicle: Klucel + Tween-80 86 % of control and 88 % of control | dose: 400.0 mg/kg/injection, schedule: Q01DX005 (ip), vehicle: Klucel + Tween-80 89 % of control

Cc1nc2sccn2c1C(N)=O
inactive: [5] 94 % of control | [11] 103 % of control | [6] 97 % of control | [12] 114 % of control | [13] 103 % of control

O=C(O)/C=N/NS(=O)(=O)c1cccc(S(=O)(=O)N/N=C/C(=O)O)c1
inactive: dose: 12.5 mg/kg/injection, schedule: Q01DX009 (ip), vehicle: water 119 % of control

CCCCCCCCCCCCOC(=O)c1ccc(O)cc1
inactive: [9] 98 % of control | [10] 94 % of control

CCCCNC(=O)NS(=O)(=O)c1ccc(N)cc1
inactive: [2] 100 % of control | [3] 105 % of control | [4] 102 % of control

CC(=O)OC1CC2C(C)(C)OC3CC(=O)OCC32C2CCC3(C)C(=CCC3c3ccoc3)C12C (stereo unspecified)
inactive: dose: 0.5 mg/kg/injection, schedule: Q01DX005 (ip), vehicle: saline + alcohol 108 % of control | dose: 1.0 mg/kg/injection, schedule: Q01DX005 (ip), vehicle: saline + alcohol 98 % of control | dose: 2.0 mg/kg/injection, schedule: Q01DX005 (ip), vehicle: saline + alcohol 106 % of control | dose: 4.0 mg/kg/injection, schedule: Q01DX005 (ip), vehicle: saline + alcohol 111 % of control | dose: 8.0 mg/kg/injection, schedule: Q01DX005 (ip), vehicle: saline + alcohol 108 % of control

CO/C1=C\C(C)=C\C(C)C(O)C(C)C/C(C)=C/C=C/C(OC)C(C(C)C(O)C(C)C(=O)/C=C/C(C)C(C)O)OC1=O (stereo unspecified)
inactive: dose: 6.25 mg/kg/injection, schedule: Q01DX005 (ip), vehicle: other 108 % of control | dose: 12.5 mg/kg/injection, schedule: Q01DX005 (ip), vehicle: other 98 % of control | dose: 25.0 mg/kg/injection, schedule: Q01DX005 (ip), vehicle: other 103 % of control | dose: 25.0 mg/kg/injection, schedule: Q01DX005 (ip), vehicle: saline + Tween-80 + alcohol 103 % of control | dose: 50.0 mg/kg/injection, schedule: Q01DX005 (ip), vehicle: other 106 % of control | dose: 50.0 mg/kg/injection, schedule: Q01DX005 (ip), vehicle: saline + Tween-80 + alcohol 94 % of control | dose: 100.0 mg/kg/injection, schedule: Q01DX005 (ip), vehicle: saline + Tween-80 + alcohol 94 % of control
